Test results: patent publication US6737383B1, “Herbicidal oxadiazolidines” (priority 1999, dated 2004)

How the values were obtained:
blackgrass = assay: Test B pre/postemergence blackgrass; type: in vivo, Alopecurus myosuroides
Summary of the method: (§1)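 Test chemicals in a non-phytotoxic solvent mixture with surfactant were sprayed preemergence onto planted seeds and postemergence onto plants 2 to 18 cm tall (1- to 4-leaf stage). After twelve to sixteen days in a greenhouse, injury was visually rated against untreated controls from 0 (no effect) to 10 (complete control).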

surinam grass = assay: Test B pre/postemergence surinam grass; type: in vivo, Brachiaria decumbens
Summary of the method: as §1

cocklebur = assay: Test B pre/postemergence cocklebur; type: in vivo, Xanthium strumarium
Summary of the method: as §1

corn = assay: Test B pre/postemergence corn; type: in vivo, Zea mays
Summary of the method: as §1

crabgrass = assay: Test B pre/postemergence crabgrass; type: in vivo, Digitaria sanguinalis
Summary of the method: as §1

giant foxtail = assay: Test B pre/postemergence giant foxtail; type: in vivo, Setaria faberii
Summary of the method: as §1

morningglory = assay: Test B pre/postemergence morningglory; type: in vivo, Ipomoea hederacea
Summary of the method: as §1

rape = assay: Test B pre/postemergence rape; type: in vivo, Brassica napus
Summary of the method: as §1

soybean = assay: Test B pre/postemergence soybean; type: in vivo, Glycine max
Summary of the method: as §1

sugar beet = assay: Test B pre/postemergence sugar beet; type: in vivo, Beta vulgaris
Summary of the method: as §1

velvetleaf = assay: Test B pre/postemergence velvetleaf; type: in vivo, Abutilon theophrasti
Summary of the method: as §1

wheat = assay: Test B pre/postemergence wheat; type: in vivo, Triticum aestivum
Summary of the method: as §1

wild oat = assay: Test B pre/postemergence wild oat; type: in vivo, Avena fatua
Summary of the method: as §1

purple nutsedge = assay: Test B pre/postemergence purple nutsedge; type: in vivo, Cyperus rotundus
Summary of the method: as §1

smallflower flatsedge = assay: Test B flood test smallflower flatsedge; type: in vivo, Cyperus difformis
Summary of the method: (§2)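 Read-out is a visual response score from 0 (no effect) to 10 (complete control), assigned by comparison with untreated controls. Treatment was applied at the 2-leaf stage, and plants stayed in the greenhouse for twelve to sixteen days before scoring.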

duck salad = assay: Test B flood test duck salad; type: in vivo, Heteranthera limosa
Summary of the method: as §2

[1] = Postemergence, Rate 250 g/ha, scale 0 to 10
[2] = Postemergence, Rate 500 g/ha, scale of 0 to 10 where 0 is no effect and 10 is complete control
[3] = Preemergence, Rate 62 g/ha, scale 0 to 10 (0 no effect, 10 complete control)
[4] = Preemergence, Rate 125 g/ha, scale of 0 to 10 where 0 is no effect and 10 is complete control
[5] = Preemergence, Rate 250 g/ha, scale of 0 to 10 where 0 is no effect and 10 is complete control
[6] = Preemergence, Rate 500 g/ha, scale 0 to 10, 0 is no effect, 10 is complete control
[7] = Rate 62 g/ha, Postemergence, scale of 0 to 10 where 0 is no effect and 10 is complete control
[8] = Rate 125 g/ha, Postemergence, scale 0 to 10, 0 is no effect, 10 is complete control
[9] = Preemergence, Rate 250 g/ha, scale 0 to 10, 0 is no effect, 10 is complete control
[10] = Postemergence block (flood test species), Rate 250 g/ha, scale 0 to 10
[11] = Postemergence section (flood test species), Rate 500 g/ha, scale of 0 to 10 where 0 is no effect and 10 is complete control
[12] = Rate 125 g/ha, Postemergence section (flood test species), scale 0 to 10, 0 is no effect, 10 is complete control

C=C[Si](C)(C)Cn1c(=O)on(C(=O)N(c2ccc(Cl)cc2)C(C)C)c1=O [Compound 425]
Blackgrass plant response rating (blackgrass; [1]): 8
Blackgrass plant response rating (blackgrass; [2]): 9
Plant response rating, Blackgrass (blackgrass; [3]): 7
Plant response rating, Blackgrass (blackgrass; [4]): 9
Blackgrass plant response rating (blackgrass; [5]): 9
Blackgrass plant response rating (blackgrass; [6]): 10
Blackgrass plant response rating (blackgrass; [7]): 2
Blackgrass plant response rating (blackgrass; [8]): 3
B. signalgrass plant response rating (surinam grass; Postemergence, Rate 250 g/ha, scale 0 to 10, 0 no effect, 10 complete control): 7
B. signalgrass plant response rating (surinam grass; [2]): 8
Plant response rating, B. signalgrass (surinam grass; [3]): 3
Plant response rating, B. signalgrass (surinam grass; [4]): 8
B. signalgrass plant response rating (surinam grass; [5]): 8
B. signalgrass plant response rating (surinam grass; Preemergence, Rate 500 g/ha, scale of 0 to 10 where 0 is no effect and 10 is complete control): 9
B. signalgrass plant response rating (surinam grass; [7]): 0
B. signalgrass plant response rating (surinam grass; [8]): 2
Cocklebur plant response rating (cocklebur; [1]): 0
Cocklebur plant response rating (cocklebur; [2]): 0
Plant response rating, Cocklebur (cocklebur; [3]): 0
Plant response rating, Cocklebur (cocklebur; [4]): 0
Cocklebur plant response rating (cocklebur; [9]): 0
Cocklebur plant response rating (cocklebur; [6]): 2
Cocklebur plant response rating (cocklebur; [7]): 0
Cocklebur plant response rating (cocklebur; [8]): 0
Corn plant response rating (corn; [1]): 0
Corn plant response rating (corn; [2]): 2
Plant response rating, Corn (corn; [3]): 0
Plant response rating, Corn (corn; [4]): 0
Corn plant response rating (corn; [9]): 0
Corn plant response rating (corn; [6]): 9
Corn plant response rating (corn; [7]): 0
Corn plant response rating (corn; [8]): 0
Crabgrass plant response rating (crabgrass; [1]): 8
Crabgrass plant response rating (crabgrass; [2]): 9
Plant response rating, Crabgrass (crabgrass; [3]): 9
Plant response rating, Crabgrass (crabgrass; [4]): 10
Crabgrass plant response rating (crabgrass; [9]): 10
Crabgrass plant response rating (crabgrass; [6]): 10
Crabgrass plant response rating (crabgrass; [7]): 4
Crabgrass plant response rating (crabgrass; [8]): 7
Giant foxtail plant response rating (giant foxtail; [1]): 8
Giant foxtail plant response rating (giant foxtail; [2]): 9
Plant response rating, Giant foxtail (giant foxtail; [3]): 10
Plant response rating, Giant foxtail (giant foxtail; [4]): 10
Giant foxtail plant response rating (giant foxtail; [9]): 10
Giant foxtail plant response rating (giant foxtail; [6]): 10
Giant foxtail plant response rating (giant foxtail; [7]): 6
Giant foxtail plant response rating (giant foxtail; [8]): 7
Morningglory plant response rating (morningglory; [1]): 6
Morningglory plant response rating (morningglory; [2]): 10
Plant response rating, Morningglory (morningglory; [3]): 0
Plant response rating, Morningglory (morningglory; [4]): 0
Morningglory plant response rating (morningglory; [9]): 2
Morningglory plant response rating (morningglory; [6]): 4
Morningglory plant response rating (morningglory; [8]): 5
Rape plant response rating (rape; [1]): 2
Rape plant response rating (rape; [2]): 3
Plant response rating, Rape (rape; [3]): 0
Plant response rating, Rape (rape; [4]): 2
Rape plant response rating (rape; [9]): 2
Rape plant response rating (rape; [6]): 10
Rape plant response rating (rape; [8]): 0
Soybean plant response rating (soybean; [1]): 2
Soybean plant response rating (soybean; [2]): 3
Plant response rating, Soybean (soybean; [3]): 0
Plant response rating, Soybean (soybean; [4]): 0
Soybean plant response rating (soybean; [9]): 0
Soybean plant response rating (soybean; [6]): 0
Soybean plant response rating (soybean; [8]): 1
Sugarbeets plant response rating (sugar beet; [1]): 3
Sugarbeets plant response rating (sugar beet; [2]): 4
Plant response rating, Sugarbeets (sugar beet; [3]): 0
Plant response rating, Sugarbeets (sugar beet; [4]): 0
Sugarbeets plant response rating (sugar beet; [9]): 2
Sugarbeets plant response rating (sugar beet; [6]): 2
Sugarbeets plant response rating (sugar beet; [8]): 2
Velvetleaf plant response rating (velvetleaf; [1]): 0
Velvetleaf plant response rating (velvetleaf; [2]): 2
Plant response rating, Velvetleaf (velvetleaf; [3]): 0
Plant response rating, Velvetleaf (velvetleaf; [4]): 0
Velvetleaf plant response rating (velvetleaf; [9]): 2
Velvetleaf plant response rating (velvetleaf; [6]): 6
Velvetleaf plant response rating (velvetleaf; [8]): 0
Wheat plant response rating (wheat; [1]): 3
Wheat plant response rating (wheat; [2]): 6
Plant response rating, Wheat (wheat; [3]): 2
Plant response rating, Wheat (wheat; [4]): 2
Wheat plant response rating (wheat; [9]): 3
Wheat plant response rating (wheat; [6]): 4
Wheat plant response rating (wheat; [8]): 0
Wild oats plant response rating (wild oat; [1]): 2
Wild oats plant response rating (wild oat; [2]): 3
Plant response rating, Wild oats (wild oat; [3]): 2
Plant response rating, Wild oats (wild oat; [4]): 4
Wild oats plant response rating (wild oat; [9]): 4
Wild oats plant response rating (wild oat; [6]): 10
Wild oats plant response rating (wild oat; [8]): 0
Nutsedge plant response rating (purple nutsedge; [1]): 0
Nutsedge plant response rating (purple nutsedge; [2]): 0
Plant response rating, Nutsedge (purple nutsedge; [3]): 0
Plant response rating, Nutsedge (purple nutsedge; [4]): 0
Nutsedge plant response rating (purple nutsedge; [9]): 3
Nutsedge plant response rating (purple nutsedge; [6]): 5
Nutsedge plant response rating (purple nutsedge; [8]): 0
S. Flatsedge plant response rating (smallflower flatsedge; [10]): 2
S. Flatsedge plant response rating (smallflower flatsedge; [11]): 6
S. Flatsedge plant response rating (smallflower flatsedge; [12]): 0
Ducksalad plant response rating (duck salad; [10]): 0
Ducksalad plant response rating (duck salad; [11]): 0
Ducksalad plant response rating (duck salad; Rate 62 g/ha, Postemergence (flood test species), scale of 0 to 10 where 0 is no effect and 10 is complete control): 0
Ducksalad plant response rating (duck salad; [12]): 0
